Laboratory results taken from ChEMBL document CHEMBL2086342, “Synthesis and preliminary bioevaluation of novel E-ring modified acetal analog of camptothecin as cytotoxic agents” (Eur J Med Chem, 2012).
Activity calls are given as the source filed them. The rule behind the calls is not given here.

Experiments:
A549 [1] = assay: Antiproliferative activity against human A549 cells after 3 days by MTT assay; assay type: functional, cell-based; conditions: A549, 72 h
Bos taurus [2] = species: Bos taurus; assay: Inhibition of calf thymus DNA topoisomerase 1-mediated relaxation of supercoiled DNA pBR322 assessed as appearance of short DNA fragment after 15 mins by agarose gel electrophoresis
MDA-MB-435 = assay: Antiproliferative activity against human MDA-MB-435 cells after 3 days by MTT assay; assay type: functional, cell-based; conditions: MDA-MB-435, 72 h
HCT-116 = assay: Antiproliferative activity against human HCT116 cells after 3 days by MTT assay; assay type: functional, cell-based; conditions: HCT-116, 72 h
Mus musculus [3] = assay: Toxicity in human A549 cells xenografted in BALB/c mouse assessed as gross abnormalities at 2 mg/kg, ip qd for 5 days measured after 14 days by necropsy analysis; assay type: organism-based; design: dose 2 mg/kg, route intraperitoneal; conditions: in vivo, 336 h
A549 [4] = assay: Antitumor activity against human A549 cells xenografted in BALB/c mouse assessed as decrease in tumor weight at 2 mg/kg, ip qd for 5 days measured after 14 days relative to control; assay type: functional; conditions: route intraperitoneal, read-out: TGI
Bos taurus [5] = species: Bos taurus; assay: Inhibition of calf thymus DNA topoisomerase 1-mediated relaxation of supercoiled DNA pBR322 assessed as appearance of short DNA fragment at 100 uM after 15 mins by agarose gel electrophoresis
Mus musculus [6] = assay: Toxicity in human A549 cells xenografted in BALB/c mouse assessed as reduction in body weight at 2 mg/kg, ip qd for 5 days measured after 14 days; assay type: organism-based; design: dose 2 mg/kg, route intraperitoneal; conditions: in vivo, 336 h
Mus musculus [7] = assay: Toxicity in human A549 cells xenografted in BALB/c mouse assessed as mortality at 2 mg/kg, ip qd for 5 days measured after 14 days; assay type: organism-based; design: dose 2 mg/kg, route intraperitoneal; conditions: in vivo, 336 h
Bos taurus [8] = species: Bos taurus; assay: Inhibition of calf thymus DNA topoisomerase 1-mediated relaxation of supercoiled DNA pBR322 assessed as appearance of short DNA fragment at 1 to 50 uM after 15 mins by agarose gel electrophoresis
Mus musculus [9] = assay: Toxicity in human A549 cells xenografted in BALB/c mouse assessed as mortality at 0.5 mg/kg, iv qd for 5 days measured after 14 days; assay type: organism-based; design: dose 0.5 mg/kg, route intravenous; conditions: in vivo, 336 h
Mus musculus [10] = assay: Toxicity in human A549 cells xenografted in BALB/c mouse assessed as reduction in body weight at 0.5 mg/kg, iv qd for 5 days measured after 14 days; assay type: organism-based; design: dose 0.5 mg/kg, route intravenous; conditions: in vivo, 336 h
A549 [11] = assay: Antitumor activity against human A549 cells xenografted in BALB/c mouse assessed as decrease in tumor weight at 0.5 mg/kg, iv qd for 5 days measured after 14 days relative to control; assay type: functional; conditions: read-out: TGI
A549 [12] = assay: Induction of apoptosis in human A549 cells assessed as morphological change at 5 uM after 48 hrs by phase contrast microscopy analysis; assay type: functional, cell-based
A549 [13] = assay: Induction of apoptosis in human A549 cells at 5 uM after 48 hrs by annexinV and propidium iodide dual stain based flow cytometry analysis relative to control; assay type: functional
ZR-75-30 = assay: Antiproliferative activity against human ZR75-30 cells after 3 days by MTT assay; assay type: functional, cell-based; conditions: ZR-75-30, 72 h
MRC5 = assay: Antiproliferative activity against human MRC5 cells after 3 days by MTT assay; assay type: cell-based; conditions: mrc5, 72 h

For `CC[C@@]1(O)C(=O)OCc2c1cc1n(c2=O)Cc2cc3ccccc3nc2-1` [CAMPTOTHECIN], the IC50 (A549 [1]) was 2610 nM, the inhibition (Bos taurus [2]) was “Dose-dependent effect” and the IC50 (MDA-MB-435) was 43.6 nM. The IC50 (HCT-116) was 110 nM.

Work on `CC[C@]1(O)c2cc3n(c(=O)c2CO[C@H]1OC(C)COC)Cc1cc2ccccc2nc1-3` (stereo partly drawn) yielded an IC50 (A549 [1]) of 8380 nM, an IC50 (MDA-MB-435) of 2740 nM and an IC50 (HCT-116) of 117 nM.

For `CCOCCO[C@@H]1OCc2c(cc3n(c2=O)Cc2cc4ccccc4nc2-3)[C@@]1(O)CC`, the IC50 (A549 [1]) was 2580 nM, the Activity (Mus musculus [3]) was “Non-toxic” and the IC50 (MDA-MB-435) was 469 nM. For the same molecule, the inhibition in vivo at 2 mg/kg (A549 [4]) was 35%, the inhibition (Bos taurus [5]) was “Active” and the Activity (Mus musculus [6]) was 20.98 g. For the same molecule, the IC50 (HCT-116) was 90.2 nM and the Activity (Mus musculus [7]) was “Non-toxic”.

For `CC[C@]1(O)c2cc3n(c(=O)c2CO[C@H]1OC(=O)CCC(=O)O)Cc1cc2ccccc2nc1-3`, the IC50 (A549 [1]) was 308 nM, the IC50 (MDA-MB-435) was 1320 nM and the IC50 (HCT-116) was 264 nM.

With `CCO[C@@H]1OCc2c(cc3n(c2=O)Cc2cc4ccccc4nc2-3)[C@@]1(O)CC` the IC50 (A549 [1]) was 322 nM, the IC50 (MDA-MB-435) was 6250 nM and the inhibition (Bos taurus [5]) was “Active”. The IC50 (HCT-116) was 406 nM.

With `CC[C@]1(O)c2cc3n(c(=O)c2CO[C@H]1OC)Cc1cc2ccccc2nc1-3` the IC50 (A549 [1]) was 420 nM, the IC50 (MDA-MB-435) was 3670 nM and the inhibition (Bos taurus [5]) was “Active”. For the same molecule, the IC50 (HCT-116) was 532 nM.

With `CCOCCO[C@@H]1OCc2c(cc3n(c2=O)Cc2cc4c([N+](=O)[O-])cccc4nc2-3)[C@@]1(O)CC` the IC50 (A549 [1]) was 5690 nM, the IC50 (MDA-MB-435) was 1080 nM and the IC50 (HCT-116) was 56.9 nM.

In the case of `CCC(C)O[C@@H]1OCc2c(cc3n(c2=O)Cc2cc4ccccc4nc2-3)[C@@]1(O)CC` (stereo partly drawn), the IC50 (A549 [1]) is reported as > 100000 nM, the IC50 (MDA-MB-435) is reported as > 100000 nM and the IC50 (HCT-116) is reported as > 100000 nM.

`CC[C@]1(O)c2cc3n(c(=O)c2CO[C@H]1OC(C)C)Cc1cc2ccccc2nc1-3` was tested, and the IC50 (A549 [1]) was > 100000 nM, the IC50 (MDA-MB-435) was > 100000 nM and the IC50 (HCT-116) was 11500 nM.

`CCOCCO[C@@H]1OCc2c(cc3n(c2=O)Cc2cc4cc(OC)ccc4nc2-3)[C@@]1(O)CC` was tested, and the IC50 (A549 [1]) was 838 nM, the IC50 (MDA-MB-435) was 210 nM and the inhibition (Bos taurus [5]) was “Active”. The inhibition (Bos taurus [8]) was “inactive” and the IC50 (HCT-116) was 1 nM.

`CCCO[C@@H]1OCc2c(cc3n(c2=O)Cc2cc4ccccc4nc2-3)[C@@]1(O)CC` gave an IC50 (A549 [1]) of 323 nM, an IC50 (MDA-MB-435) of 12700 nM and an IC50 (HCT-116) of 517 nM.

`CC[C@]1(O)c2cc3n(c(=O)c2CO[C@H]1OCC(F)(F)C(F)(F)F)Cc1cc2ccccc2nc1-3` was tested, and the IC50 (A549 [1]) was 302 nM, the IC50 (MDA-MB-435) was 606 nM and the IC50 (HCT-116) was 73 nM.

With `CCOCC(C)O[C@@H]1OCc2c(cc3n(c2=O)Cc2cc4ccccc4nc2-3)[C@@]1(O)CC` (stereo partly drawn) the IC50 (A549 [1]) was 7400 nM, the IC50 (MDA-MB-435) was 2520 nM and the IC50 (HCT-116) was 236 nM.

Work on `CC[C@]1(O)c2cc3n(c(=O)c2CO[C@@H]1OC)Cc1cc2ccccc2nc1-3` yielded an IC50 (A549 [1]) of 8800 nM, an IC50 (MDA-MB-435) of 56400 nM and an IC50 (HCT-116) of 8170 nM.

`CC[C@]1(O)c2cc3n(c(=O)c2CO[C@H]1OCCF)Cc1cc2ccccc2nc1-3` was tested, and the IC50 (A549 [1]) was 6310 nM, the IC50 (MDA-MB-435) was 1330 nM and the inhibition (Bos taurus [5]) was “Active”. For the same molecule, the IC50 (HCT-116) was 249 nM.

In the case of `CCCCCO[C@@H]1OCc2c(cc3n(c2=O)Cc2cc4ccccc4nc2-3)[C@@]1(O)CC`, the IC50 (A549 [1]) is reported as 678 nM, the IC50 (MDA-MB-435) is reported as 10600 nM and the IC50 (HCT-116) is reported as 127 nM.

`CC[C@@]1(O)C(=O)OCc2c1cc1n(c2=O)Cc2cc3c(CN(C)C)c(O)ccc3nc2-1` [TOPOTECAN] was tested, and the IC50 (A549 [1]) was 2800 nM, the Activity (Mus musculus [9]) was “Non-toxic” and the IC50 (MDA-MB-435) was 917 nM. It also gave an Activity (Mus musculus [10]) of 15.15 g, an inhibition in vivo at 0.5 mg/kg (A549 [11]) of 57.5% and an IC50 (HCT-116) of 88.9 nM.

In the case of `CC[C@]1(O)c2cc3n(c(=O)c2CO[C@H]1OCCOC)Cc1cc2ccccc2nc1-3`, the IC50 (A549 [1]) is reported as 5190 nM, the IC50 (MDA-MB-435) is reported as 4920 nM and the inhibition (Bos taurus [5]) is reported as “Active”. For the same molecule, the IC50 (HCT-116) was 333 nM.

In the case of `CCCCc1c2c(nc3ccccc13)-c1cc3c(c(=O)n1C2)CO[C@@H](OCCOCC)[C@]3(O)CC`, the IC50 (A549 [1]) is reported as 598 nM, the Activity (Mus musculus [3]) is reported as “Non-toxic” and the Activity (A549 [12]) is reported as “Active”. The IC50 (MDA-MB-435) was 223 nM, the inhibition in vivo at 2 mg/kg (A549 [4]) was 27% and the inhibition (Bos taurus [5]) was “Active”. For the same molecule, the Activity (A549 [13]) was 0.5%, the IC50 (ZR-75-30) was 122 nM and the Activity (Mus musculus [6]) was 21.09 g. For the same molecule, the inhibition (Bos taurus [8]) was “inactive”, the IC50 (HCT-116) was 1 nM and the Activity (Mus musculus [7]) was “Non-toxic”. The Activity (MRC5) was “Non-toxic”.

With `CC[C@]1(O)c2cc3n(c(=O)c2CO[C@H]1OCC(F)(F)F)Cc1cc2ccccc2nc1-3` the IC50 (A549 [1]) was 5970 nM, the IC50 (MDA-MB-435) was 2300 nM and the inhibition (Bos taurus [5]) was “Active”. For the same molecule, the IC50 (HCT-116) was 309 nM.

`CCCCO[C@@H]1OCc2c(cc3n(c2=O)Cc2cc4ccccc4nc2-3)[C@@]1(O)CC` was tested, and the IC50 (A549 [1]) was > 100000 nM, the IC50 (MDA-MB-435) was > 100000 nM and the inhibition (Bos taurus [5]) was “Active”. The IC50 (HCT-116) was 95100 nM.

Molecule `CC[C@]1(O)c2cc3n(c(=O)c2CO[C@H]1OCC(C)C)Cc1cc2ccccc2nc1-3` has an IC50 (A549 [1]) of 394 nM, an IC50 (MDA-MB-435) of 7900 nM and an IC50 (HCT-116) of 210 nM.
